Counter-ions that a name gives are not always drawn.

Our source for the melting point values is patent US20050032873A1, “3-Amino chroman and 2-amino tetralin derivatives” (Wyeth, priority 2003, published 2005).

Broadly, the melting point is the temperature, or range, at which the solid turns liquid. Take `CNC(=O)c1ccc(F)c2c1CC(N(CCCc1c[nH]c3ccc(F)cc13)C1CCC1)CO2` (stereo not shown) (as salt: hydrochloride) [Compound 59, 3-{cyclobutyl[3-(5-fluoro-1H-indol-3-yl)propyl]amino}-8-fluoro-N-methylchromane-5-carboxamide]: the melting point was 132 °C (dec.). Regarding `CCNC(=O)c1ccc(F)c2c1CC(N(CCCc1c[nH]c3ccc(F)cc13)C1CCC1)CO2` (stereo not shown) (as salt: hydrochloride) [Compound 60, 3-{cyclobutyl[3-(5-fluoro-1H-indol-3-yl)propyl]amino}-N-ethyl-8-fluorochromane-5-carboxamide], the melting point was 130 °C (dec.). Consider `CCCNC(=O)c1ccc(F)c2c1CC(N(CCCc1c[nH]c3ccc(F)cc13)C1CCC1)CO2` (stereo not shown) (as salt: hydrochloride) [Compound 61, 3-{cyclobutyl[3-(5-fluoro-1H-indol-3-yl)propyl]amino}-8-fluoro-N-propylchromane-5-carboxamide], for which the melting point was 67 °C (dec.).

Consider `CCCCNC(=O)c1ccc(F)c2c1CC(N(CCCc1c[nH]c3ccc(F)cc13)C1CCC1)CO2` (stereo not shown) (as salt: hydrochloride) [Compound 62, N-butyl-3-{cyclobutyl[3-(5-fluoro-1H-indol-3-yl)propyl]amino}-8-fluorochromane-5-carboxamide], for which the melting point was 106 °C (dec.). With `CC(C)NC(=O)c1ccc(F)c2c1CC(N(CCCc1c[nH]c3ccc(F)cc13)C1CCC1)CO2` (stereo not shown) (as salt: hydrochloride) [Compound 63, 3-{cyclobutyl[3-(5-fluoro-1H-indol-3-yl)propyl]amino}-8-fluoro-N-isopropylchromane-5-carboxamide], the melting point is 127 °C (dec.). Consider `O=C(NC1CC1)c1ccc(F)c2c1CC(N(CCCc1c[nH]c3ccc(F)cc13)C1CCC1)CO2` (stereo not shown) (as salt: hydrochloride) [Compound 64, 3-{cyclobutyl[3-(5-fluoro-1H-indol-3-yl)propyl]amino}-N-cyclopropyl-8-fluorochromane-5-carboxamide], for which the melting point was 134 °C (dec.). Take `O=C(NC1CCC1)c1ccc(F)c2c1CC(N(CCCc1c[nH]c3ccc(F)cc13)C1CCC1)CO2` (stereo not shown) (as salt: hydrochloride) [Compound 65, N-cyclobutyl-3-{cyclobutyl[3-(5-fluoro-1H-indol-3-yl)propyl]amino}-8-fluorochromane-5-carboxamide]: the melting point was 135 °C (dec.). As to `O=C(NC1CCCC1)c1ccc(F)c2c1CC(N(CCCc1c[nH]c3ccc(F)cc13)C1CCC1)CO2` (stereo not shown) (as salt: hydrochloride) [Compound 66, 3-{cyclobutyl[3-(5-fluoro-1H-indol-3-yl)propyl]amino}-N-cyclopentyl-8-fluorochromane-5-carboxamide], the melting point is 133 °C (dec.). In the case of `O=C(NC1CCCCC1)c1ccc(F)c2c1CC(N(CCCc1c[nH]c3ccc(F)cc13)C1CCC1)CO2` (stereo not shown) (as salt: hydrochloride) [Compound 67, 3-{cyclobutyl[3-(5-fluoro-1H-indol-3-yl)propyl]amino}-N-cyclohexyl-8-fluorochromane-5-carboxamide], the melting point was 134 °C (dec.). Regarding `O=C(NCC1CC1)c1ccc(F)c2c1CC(N(CCCc1c[nH]c3ccc(F)cc13)C1CCC1)CO2` (stereo not shown) (as salt: hydrochloride) [Compound 68, 3-{cyclobutyl[3-(5-fluoro-1H-indol-3-yl)propyl]amino}-N-(cyclopropylmethyl)-8-fluorochromane-5-carboxamide], the melting point is 114 °C (dec.). For the compound `O=C(NCc1ccccc1)c1ccc(F)c2c1CC(N(CCCc1c[nH]c3ccc(F)cc13)C1CCC1)CO2` (stereo not shown) (as salt: hydrochloride) [Compound 69, N-benzyl-3-{cyclobutyl[3-(5-fluoro-1H-indol-3-yl)propyl]amino}-8-fluorochromane-5-carboxamide], the melting point was 124 °C (dec.). `O=C(Nc1ccccc1)c1ccc(F)c2c1CC(N(CCCc1c[nH]c3ccc(F)cc13)C1CCC1)CO2` (stereo not shown) (as salt: hydrochloride) [Compound 70, 3-{cyclobutyl[3-(5-fluoro-1H-indol-3-yl)propyl]amino}-8-fluoro-N-phenylchromane-5-carboxamide]: the melting point was 136 °C (dec.).

Regarding `CCCCCN(CCCc1c[nH]c2ccc(F)cc12)C1COc2c(F)ccc(C(N)=O)c2C1` (stereo not shown) (as salt: hydrochloride) [Compound 71, 8-fluoro-3-[[3-(5-fluoro-1H-indol-3-yl)propyl](pentyl)amino]chromane-5-carboxamide], the melting point was 128 °C (dec.). Turning to `CCCCN(CCCc1c[nH]c2ccc(F)cc12)C1COc2c(F)ccc(C(N)=O)c2C1` (stereo not shown) (as salt: hydrochloride) [Compound 72, 3-{butyl[3-(5-fluoro-1H-indol-3-yl)propyl]amino}-8-fluorochromane-5-carboxamide], the melting point was 126 °C (dec.). For the compound `CN(C)C(=O)c1ccc(F)c2c1CC(N(CCCc1c[nH]c3ccc(F)cc13)C1CCC1)CO2` (stereo not shown) (as salt: hydrochloride) [Compound 73, 3-{cyclobutyl[3-(5-fluoro-1H-indol-3-yl)propyl]amino}-8-fluoro-N,N-dimethylchromane-5-carboxamide], the melting point was 126 °C (dec.). As for `NC(=O)c1ccc(F)c2c1CC(N(CCCc1c[nH]c3ccc(F)cc13)Cc1ccccc1)CO2` (stereo not shown) (as salt: hydrochloride) [Compound 74, 3-{benzyl[3-(5-fluoro-1H-indol-3-yl)propyl]amino}-8-fluorochromane-5-carboxamide], the melting point is 142 to 150 °C (dec.). In the case of `NC(=O)c1ccc(F)c2c1CC(NCCc1c[nH]c3ccc(F)cc13)CO2` (stereo not shown) (as salt: hydrochloride) [Compound 75, 8-fluoro-3-{[2-(5-fluoro-1H-indol-3-yl)ethyl]amino}chromane-5-carboxamide], the melting point is 134 °C (dec.). As to `CCN(CCc1c[nH]c2ccc(F)cc12)C1COc2c(F)ccc(C(N)=O)c2C1` (stereo not shown) (as salt: hydrochloride) [Compound 76, 3-{ethyl[2-(5-fluoro-1H-indol-3-yl)ethyl]amino}-8-fluorochromane-5-carboxamide], the melting point was 127 °C (dec.).

Consider `CCCN(CCc1c[nH]c2ccc(F)cc12)C1COc2c(F)ccc(C(N)=O)c2C1` (stereo not shown) (as salt: hydrochloride) [Compound 77, 8-fluoro-3-[[2-(5-fluoro-1H-indol-3-yl)ethyl](propyl)amino]chromane-5-carboxamide], for which the melting point was 125 °C (dec.). With `NC(=O)c1ccc(F)c2c1CC(N(CCc1c[nH]c3ccc(F)cc13)CC1CC1)CO2` (stereo not shown) (as salt: hydrochloride) [Compound 78, 3-{(cyclopropylmethyl)[2-(5-fluoro-1H-indol-3-yl)ethyl]amino}-8-fluorochromane-5-carboxamide], the melting point is 132 °C (dec.). As for `NC(=O)c1ccc(F)c2c1CC(NCCCCc1c[nH]c3ccc(F)cc13)CO2` (stereo not shown) (as salt: hydrochloride) [Compound 79, 8-fluoro-3-{[4-(5-fluoro-1H-indol-3-yl)butyl]amino}chromane-5-carboxamide], the figure is 52 °C (dec.). As to `CCN(CCCCc1c[nH]c2ccc(F)cc12)C1COc2c(F)ccc(C(N)=O)c2C1` (stereo not shown) (as salt: hydrochloride) [Compound 80, 3-{ethyl[4-(5-fluoro-1H-indol-3-yl)butyl]amino}-8-fluorochromane-5-carboxamide], the melting point is 110 °C (dec.).

With `CCCN(CCCCc1c[nH]c2ccc(F)cc12)C1COc2c(F)ccc(C(N)=O)c2C1` (stereo not shown) (as salt: hydrochloride) [Compound 81, 8-fluoro-3-[[4-(5-fluoro-1H-indol-3-yl)butyl](propyl)amino]chromane-5-carboxamide], the melting point is 115 °C (dec.).

In the case of `NC(=O)c1ccc(F)c2c1CC(N(CCCCc1c[nH]c3ccc(F)cc13)C1CCC1)CO2` (stereo not shown) (as salt: hydrochloride) [Compound 83, 3-{cyclobutyl[4-(5-fluoro-1H-indol-3-yl)butyl]amino}-8-fluorochromane-5-carboxamide], the melting point was 122 °C (dec.). With `NC(=O)c1ccc(F)c2c1C[C@@H](N(CCCCc1c[nH]c3ccc(F)cc13)C1CCC1)CO2` (as salt: hydrochloride) [Compound 83a, (3R)-3-{cyclobutyl[4-(5-fluoro-1H-indol-3-yl)butyl]amino}-8-fluorochromane-5-carboxamide], the melting point was 128 °C (dec.). In the case of `NC(=O)c1ccc(F)c2c1C[C@H](N(CCCCc1c[nH]c3ccc(F)cc13)C1CCC1)CO2` (as salt: hydrochloride) [Compound 83b, (3S)-3-{cyclobutyl[4-(5-fluoro-1H-indol-3-yl)butyl]amino}-8-fluorochromane-5-carboxamide] it was 128 °C (dec.). Turning to `CNC(=O)c1ccc(F)c2c1CC(NCCc1c[nH]c3ccc(F)cc13)CO2` (stereo not shown) (as salt: hydrochloride) [Compound 84, 8-fluoro-3-{[2-(5-fluoro-1H-indol-3-yl)ethyl]amino}-N-methylchromane-5-carboxamide], the melting point was 148 °C (dec.). Consider `CCN(CCc1c[nH]c2ccc(F)cc12)C1COc2c(F)ccc(C(=O)NC)c2C1` (stereo not shown) (as salt: hydrochloride) [Compound 85, 3-{ethyl[2-(5-fluoro-1H-indol-3-yl)ethyl]amino}-8-fluoro-N-methylchromane-5-carboxamide], for which the melting point is 125 °C (dec.). `CNC(=O)c1ccc(F)c2c1CC(N(CCc1c[nH]c3ccc(F)cc13)CC1CC1)CO2` (stereo not shown) (as salt: hydrochloride) [Compound 86, 3-{(cyclopropylmethyl)[2-(5-fluoro-1H-indol-3-yl)ethyl]amino}-8-fluoro-N-methylchromane-5-carboxamide]: the melting point is 138 °C (dec.). `CNC(=O)c1ccc(F)c2c1CC(N(CCc1c[nH]c3ccc(F)cc13)C1CCC1)CO2` (stereo not shown) (as salt: hydrochloride) [Compound 87, 3-{cyclobutyl[2-(5-fluoro-1H-indol-3-yl)ethyl]amino}-8-fluoro-N-methylchromane-5-carboxamide]: the melting point is 131 °C (dec.).

Consider `CNC(=O)c1ccc(F)c2c1CC(NCCCc1c[nH]c3ccc(F)cc13)CO2` (stereo not shown) (as salt: hydrochloride) [Compound 88, 8-fluoro-3-{[3-(5-fluoro-1H-indol-3-yl)propyl]amino}-N-methylchromane-5-carboxamide], for which the melting point was 148 °C (dec.).
